Reference: paper PMC3781034, “A Small-Animal Pharmacokinetic/Pharmacodynamic PET Study of Central Serotonin 1A Receptor Occupancy by a Potential Therapeutic Agent for Overactive Bladder” (PLoS ONE, 2013)
Where two headings read alike, the source gives them in different places.

Columns and labels:
[1] = PK study in rats (oral); assay type: in vivo; settings: Sprague-Dawley, rat, plasma, 1 mg/kg oral; for AUC(0-t): read-out: AUC0-8hr
Method: E2110 was administered orally to male and female SD rats, (4 animals/sex) at a dose of 1 mg/kg. Blood samples were collected from the jugular veins by heparinized syringes at 0.25, 0.5, 1, 2, 4, 6, and 8 hours after dosing.
Concentrations of E2110 were determined in plasma or PBS by liquid chromatography - tandem mass spectrometry. Samples (5 µL) were injected into an L-column ODS (35 × 2.1 mm; 5 µM, Chemical Evaluation and Research Institute, Tokyo, Japan) with a flow rate of 0.6 mL/min. We used 0.1% formic acid in water and acetonitrile as mobile phase A and B, respectively. The gradient elution started with a gradient from 0% to 100% mobile phase B for 2 min, then 1 min of 100% B, followed by a gradient of 100% to 0% for 0.01 min at the end, at a flow rate of 0.6 ml/min. The mass spectrometer (Quattro Ultima-Pt; Micromass, Waters Ltd., Manchester, UK) was operated in a positive ion multiple reaction monitoring mode. E2110 was monitored using mass transitions of 490.4/459.2. Tamsulosin was used as an internal standard, and was monitored using a mass transition of 409.3/200.0. The lower limit of quantification of E2110 in plasma was 0.5 ng/mL.

[2] = target: T1, rat 5-HT1A receptor (Rattus norvegicus, UniProt P19327); assay: Binding assay in rat hippocampal membrane fraction ([3H]MPPF); settings: rat hippocampal membranes, 0.3 nM [3H]MPPF, 25°C 60 min; read-out: Ki, 5-HT1A receptor affinity
T1 construct: from tissue; host or cells: rat hippocampus, membrane (microsomal) fraction
T1 sequence (P19327 1-422): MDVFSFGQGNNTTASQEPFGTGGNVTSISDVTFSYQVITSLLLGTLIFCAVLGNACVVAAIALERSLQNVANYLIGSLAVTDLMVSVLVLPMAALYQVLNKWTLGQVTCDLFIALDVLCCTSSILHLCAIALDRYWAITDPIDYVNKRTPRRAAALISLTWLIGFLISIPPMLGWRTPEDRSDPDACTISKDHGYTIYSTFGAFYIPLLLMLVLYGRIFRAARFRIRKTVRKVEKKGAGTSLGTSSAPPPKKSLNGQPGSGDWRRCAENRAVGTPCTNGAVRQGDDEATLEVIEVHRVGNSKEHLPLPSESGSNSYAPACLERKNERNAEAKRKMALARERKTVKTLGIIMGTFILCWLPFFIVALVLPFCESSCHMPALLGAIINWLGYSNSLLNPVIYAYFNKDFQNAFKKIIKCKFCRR
Method: Rat hippocampal samples were weighed, homogenized in 10-fold volume of 50 mM Tris-HCl (pH 7.4) on an ice bath, and centrifuged (50,000×g, 4°C, 20 min). The precipitate was further homogenized in a 10-fold volume of 50 mM Tris-HCl (pH 7.4) on an ice bath and centrifuged (50,000×g, 4°C, 20 min). The obtained precipitate was homogenized in 50 mM Tris-HCl (pH 7.4) to render a concentration of 100 mg tissue eq./mL. The obtained microsomal fraction was stored as a receptor stock solution at -80°C until use. […] MPPF in a total 1-ml reaction volume at 25°C for 60 min. The reaction was terminated, and bound radioactivity was separated from free radioligands by filtering and washing three times with 3 ml of 50 mM Tris-HCl (pH 7.4). The radioactivity content of the filters in 5 ml of liquid scintillator (Atomlight; PerkinElmer) was counted by TR2500 scintillation counter (PerkinElmer Life & Analytical Sciences). The specific binding was determined as the difference between total and nonspecific binding, measured in the absence and presence of 100 µM 5-HT. Data were analyzed by Scatchard plot to estimate equilibrium constant (Kd) values. For the competition experiments, binding assays were carried out using 0.3 nM [^3H] […] MPPF according to the following equation:
Ki=IC50/1+[radioligand]/Kd (1)
where [radioligand] means the concentration of the radioligand used.

[3] = Protein binding of E2110 in rat plasma (equilibrium dialysis); assay type: in vitro ADME
Method: The in vitro unbound fraction of […] in male SD rat plasma was quantified by equilibrium dialysis. One mL of the […] spiked sample (100, 1000 and 10000 ng/mL) and phosphate buffered saline (PBS) were applied to one and the other chambers of a dialysis cell, respectively. The cartridge was incubated in a water bath for 24 hr at 37°C. After incubation, aliquots were sampled from both chambers and submitted to determination of the concentration of […] in each matrix by liquid chromatography-tandem mass spectrometry. Unbound fractions for each compound were calculated as the ratio of […] concentration from the PBS side to that from the plasma side of the dialysis apparatus. Concentrations of […] were determined in plasma or PBS by liquid chromatography - tandem mass spectrometry. Samples (5 μL) were injected into an L-column ODS (35 × 2.1 mm; 5 μM, Chemical Evaluation and Research Institute, Tokyo, Japan) with a flow rate of 0.6 mL/min. We used 0.1% formic acid in water and acetonitrile as mobile phase A and B, respectively. […] […] was monitored using mass transitions of 490.4/459.2. Tamsulosin was used as an internal standard, and was monitored using a mass transition of 409.3/200.0. The lower limit of quantification of […] in plasma was 0.5 ng/mL.

[4] = tested on: micturition interval; assay: Superior colliculus lesion (SCL) model, cystometry; assay type: in vivo, female SD rats
Method: For lesioning of the brain to stimulate the micturition reflex, anesthesia was induced in female SD rats with 4% halothane and an N2O/O2 (2:1) gas mixture, it was maintained with 2% halothane, and each animal was mounted onto a stereotaxic apparatus. […] Catheter implantations and cystometric investigations were performed with the same methodologies as in the 5-HT1A receptor agonist-induced model. E2110 (0.1, 0.3 or 1 mg/kg) or vehicle was administered to four groups of eight conscious rats orally. The three micturition intervals were obtained and drug-induced changes in the micturition intervals were evaluated. In this assay, the post-administration micturition interval was defined as the average of the micturition intervals over an observation period between 0.5 and 1 hour after administration.
Data are expressed as mean ± standard error of mean (S.E.M). In the pharmacological study, the statistical significance of differences between the vehicle- and E2110-treated groups was tested using one-way analysis of variance (ANOVA) followed by Dunnett’s multiple comparison test. A probability (p) value of <0.05 (two-sided) was considered statistically significant. All statistical analyses were performed using the SAS software package version 8.1 or 8.2 (SAS Institute Japan Ltd., Tokyo, Japan).

[5] = target: T2, CYP3A4 (Homo sapiens, UniProt P08684); assay: Metabolism in human liver microsomes; assay type: in vitro ADME; settings: unpublished results
T2 construct: from tissue; host or cells: human liver microsomes
T2 sequence (P08684 whole entry): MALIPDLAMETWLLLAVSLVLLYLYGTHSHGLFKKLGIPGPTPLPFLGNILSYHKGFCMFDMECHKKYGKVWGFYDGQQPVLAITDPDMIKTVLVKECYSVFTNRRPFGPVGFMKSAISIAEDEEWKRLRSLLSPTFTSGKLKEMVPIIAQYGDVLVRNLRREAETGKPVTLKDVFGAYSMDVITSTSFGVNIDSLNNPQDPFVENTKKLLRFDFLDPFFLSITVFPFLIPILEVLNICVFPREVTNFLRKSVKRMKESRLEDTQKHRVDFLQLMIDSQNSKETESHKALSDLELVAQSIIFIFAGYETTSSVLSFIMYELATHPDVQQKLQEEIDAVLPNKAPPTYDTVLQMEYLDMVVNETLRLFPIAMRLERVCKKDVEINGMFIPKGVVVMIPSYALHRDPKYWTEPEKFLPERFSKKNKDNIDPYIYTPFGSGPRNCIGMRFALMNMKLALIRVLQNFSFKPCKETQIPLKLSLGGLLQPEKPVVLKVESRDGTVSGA

CNC(=O)c1ccc2ccn(C3CCN(CCc4c(OC)ccc5c4OC(C)(C)CC5=O)CC3)c2c1.O=C(O)/C=C/C(=O)O [E2110, 1-{1-[2-(7-Methoxy-2,2-dimethyl-4-oxochroman-8-yl)ethyl]piperidine-4-yl}-N-methyl-1H-indole-6-carboxamide fumarate]
Cmax ([1]; Female SD): 126 ng/mL
Tmax ([1]; Female SD): 60 min
half-life ([1]; Female SD): 156 min
AUC(0-t) ([1]; Female SD): 488 ng·h/mL
Cmax ([1]; Male SD): 48.1 ng/mL
Tmax ([1]; Male SD): 30 min
half-life ([1]; Male SD): 90 min
AUC(0-t) ([1]; Male SD): 71.8 ng·h/mL
Ki [2]: 0.045 nM
concentration dependence of binding to plasma proteins ([3]; at 0.1, 1 µM): not dependent on its concentration
average percentage of protein-unbound E2110 in plasma ([3]; male SD rat plasma, equilibrium dialysis 24 hr 37°C): 6%
minimum dose exerting overt therapeutic effects on the micturition reflex ([4]; SCL model, oral): 0.3 mg/kg
effect on micturition interval ([4]; oral 0.3-1 mg/kg, SCL female SD rats, 0.5-1 hour after administration): significantly (p < 0.05) prolonged the micturition intervals
metabolizing enzyme [5]: primarily metabolized by CYP3A4
